No end group written: not given here.
Tested on: cells
Experiment: MTT assay for cytotoxicity
Type: cell-based
Conditions: within a range of used concentrations; FIGS. 3a and 3b

GQGFSYPYKAVFSTQ [BFP 1, Gly-Gln-Gly-Phe-Ser-Tyr-Pro-Tyr-Lys-Ala-Val-Phe-Ser-Thr-Gln]
cytotoxicity: neither BFP 1 nor BFP 2 are toxic to cells

VEHDKEFFHPRYHHR [BFP 2, Val-Glu-His-Asp-Lys-Glu-Phe-Phe-His-Pro-Arg-Tyr-His-His-Arg]
cytotoxicity: neither BFP 1 nor BFP 2 are toxic to cells
